Data: US20260070945A1, “MACROCYCLIC IMMUNOMODULATORS” (Bristol-Myers Squibb Company, priority 2022, published 2026)
Where a SMILES comes first, the peptide text is derived from it. Bridges are numbered along the chain shown (N, C = ends). [ ]: non-standard residue; d: D form. The star is where a group is joined. ξ: configuration not given here. Phe(3-CF3) = N[C@@H](Cc1cccc(C(F)(F)F)c1)C(=O)O; Ala(morpholin-4-yl) = N[C@@H](CN1CCOCC1)C(=O)O; Phe(4-CONH2) = NC(=O)c1ccc(C[C@H](N)C(=O)O)cc1; Phe(4-COOH) = N[C@@H](Cc1ccc(C(=O)O)cc1)C(=O)O; Bip = N[C@@H](Cc1ccc(-c2ccccc2)cc1)C(=O)O; Phe(3-Cl) = N[C@@H](Cc1cccc(Cl)c1)C(=O)O; NH(CH2)14COOH = O=C(O)CCCCCCCCCCCCCCN*; Phe(3-Me) = Cc1cccc(C[C@H](N)C(=O)O)c1; NH(CH2)12COOH = O=C(O)CCCCCCCCCCCCN*; Phe(2-Me) = Cc1ccccc1C[C@H](N)C(=O)O; Val(3-OH) = CC(C)(O)[C@H](N)C(=O)O; hhGln = NC(=O)CCCC[C@H](N)C(=O)O; 4Pal = N[C@@H](Cc1ccncc1)C(=O)O; Cha = N[C@@H](CC1CCCCC1)C(=O)O; Cit = NC(=O)NCCC[C@H](N)C(=O)O; Ile(3ξ) = CCC(C)[C@H](N)C(=O)O; Thr(3ξ) = CC(O)[C@H](N)C(=O)O; 12Ado = NCCCCCCCCCCCC(=O)O; dDab = NCC[C@@H](N)C(=O)O; Carboxymethyl = O=C(O)C*; NMeA = CN[C@@H](C)C(=O)O; Orn = NCCC[C@H](N)C(=O)O; Aun = NCCCCCCCCCCC(=O)O; Dab = NCC[C@H](N)C(=O)O; Nva = CCC[C@H](N)C(=O)O; AEEA = NCCOCCOCC(=O)O

Target: T1, PD-1/PD-L1 interaction (PE-labeled human PD-L1-Ig binding to Jurkat cell line over-expressing human PD-1) (Homo sapiens, UniProt Q15116)
T1 construct: expressed in transfected cells; host or cells: Jurkat
T1 sequence (Q15116 25-288): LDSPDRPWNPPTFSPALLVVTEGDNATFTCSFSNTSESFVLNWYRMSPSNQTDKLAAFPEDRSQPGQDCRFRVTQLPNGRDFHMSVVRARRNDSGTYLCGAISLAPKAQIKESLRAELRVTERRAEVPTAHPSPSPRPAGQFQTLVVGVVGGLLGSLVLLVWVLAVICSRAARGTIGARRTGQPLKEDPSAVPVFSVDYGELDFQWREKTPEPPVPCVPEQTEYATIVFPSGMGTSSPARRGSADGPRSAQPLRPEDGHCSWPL
Assay: Jurkat-PD-1 Cell Binding High-Content Screening Assay (CBA)
Settings: Jurkat-hPD-1 cells, PE-labeled PD-L1-Ig 20 nM final; read-out: Jurkat HPD1 PDL1 IC50
Outline: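 Read-out: high-content imaging of cell-bound PE fluorescence, with Hoechst 33342 nuclear counterstain after paraformaldehyde fixation. Before labeled ligand (20 nM final, 1 h) was added, compound sat on the cells for 2 h at 37 °C in DMEM/10% FCS.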

IC50 [nM]	Structure (SMILES)
6.2	CCC[C@@H]1NC(=O)[C@@H](CC(C)C)NC(=O)[C@H](C)N(C)C(=O)[C@H](C(C)C)NC(=O)[C@H](Cc2ccc(-c3ccccc3)cc2)NC(=O)[C@H](CC(C)C)NC(=O)[C@H](Cc2c[nH]c3ccccc23)NC(=O)[C@H](CC(=O)O)NC(=O)[C@H](Cc2ccc(C(=O)O)cc2)NC(=O)[C@H](Cc2ccc(OCC(=O)O)cc2)NC(=O)CSC[C@@H](C(=O)NCCOCCOCC(=O)NCCCCCCCCCCC(=O)O)NC(=O)[C@H](CCCCC(N)=O)NC(=O)[C@H](C(C)C)NC(=O)[C@H](CC2CCCCC2)NC1=O [Example 2187] ({CH2CO}-Y(Carboxymethyl)[Phe(4-COOH)]DWL[Bip]V[NMeA][dL][Nva][Cha]V[hhGln]C[AEEA][Aun]-OH; thioether N-14)
48.7	Cc1cccc(C[C@@H]2NC(=O)[C@H](CC(=O)O)NC(=O)[C@H](Cc3ccc(C(=O)O)cc3)NC(=O)[C@H](CCN)NC(=O)CSC[C@@H](C(=O)N[C@@H](CCN)C(=O)NCCCCCCCCCCC(=O)O)NC(=O)[C@H](CO)NC(=O)[C@H](C(C)(C)O)NC(=O)[C@H](CC3CCCCC3)NC(=O)[C@H](CCN)NC(=O)[C@@H](CC(C)C)NC(=O)[C@H](C)N(C)C(=O)[C@H](Cc3ccc(OCC(=O)O)cc3)NC(=O)[C@H](Cc3ccc(-c4ccccc4)cc3)NC(=O)[C@H](Cc3ccccc3C)NC2=O)c1 [Example 1296] ({CH2CO}-[Dab][Phe(4-COOH)]D[Phe(3-Me)][Phe(2-Me)][Bip]Y(Carboxymethyl)[NMeA][dL][Dab][Cha][Val(3-OH)]SC[Dab][Aun]-OH; thioether N-14)
10.1	CC(C)C[C@@H]1NC(=O)[C@H](Cc2c[nH]c3ccccc23)NC(=O)[C@H](CC(=O)O)NC(=O)[C@H](Cc2ccncc2)NC(=O)[C@H](Cc2ccc(OCC(=O)O)cc2)NC(=O)CSC[C@@H](C(=O)NCCOCCOCC(=O)NCCCCCCCCCCC(=O)O)NC(=O)[C@H](CO)NC(=O)[C@H](C(C)C)NC(=O)[C@H](CC2CCCCC2)NC(=O)[C@H](CCN)NC(=O)[C@@H](CC(C)C)NC(=O)[C@H](C)N(C)C(=O)[C@H](C(C)C)NC(=O)[C@H](Cc2ccc(-c3ccccc3)cc2)NC1=O [Example 1081] ({CH2CO}-Y(Carboxymethyl)[4Pal]DWL[Bip]V[NMeA][dL][Dab][Cha]VSC[AEEA][Aun]-OH; thioether N-14)
11.5	CC(C)C[C@@H]1NC(=O)[C@H](Cc2c[nH]c3ccccc23)NC(=O)[C@H](CC(=O)O)NC(=O)[C@H](Cc2ccc(C(=O)O)cc2)NC(=O)[C@H](Cc2ccc(OCC(=O)O)cc2)NC(=O)CSC[C@@H](C(=O)N[C@@H](CCCN)C(=O)NCCOCCOCC(=O)NCCCCCCCCCCC(=O)O)NC(=O)[C@H](CC(=O)O)NC(=O)[C@H](C(C)C)NC(=O)[C@H](CC2CCCCC2)NC(=O)[C@H](CCN)NC(=O)[C@@H](CC(C)C)NC(=O)[C@H](C)N(C)C(=O)[C@H](C(C)C)NC(=O)[C@H](Cc2ccc(-c3ccccc3)cc2)NC1=O [Example 2125] ({CH2CO}-Y(Carboxymethyl)[Phe(4-COOH)]DWL[Bip]V[NMeA][dL][Dab][Cha]VDC[Orn][AEEA][Aun]-OH; thioether N-14)
34.1	CC(C)C[C@H]1NC(=O)[C@H](C)N(C)C(=O)[C@H](Cc2ccc(OCC(=O)O)cc2)NC(=O)[C@H](Cc2ccc(-c3ccccc3)cc2)NC(=O)[C@H](Cc2ccc(C(=O)O)cc2)NC(=O)[C@H](Cc2cccc(Cl)c2)NC(=O)[C@H](CC(=O)O)NC(=O)[C@H](Cc2ccc(OCC(=O)O)cc2)NC(=O)[C@H]([C@@H](C)O)NC(=O)CSC[C@@H](C(=O)N[C@@H](CCN)C(=O)NCCCCCCCCCCC(=O)O)NC(=O)[C@H]([C@@H](C)O)NC(=O)[C@H](C(C)C)NC(=O)[C@H](CC2CCCCC2)NC(=O)[C@H](CCN)NC1=O [Example 1232] ({CH2CO}-TY(Carboxymethyl)D[Phe(3-Cl)][Phe(4-COOH)][Bip]Y(Carboxymethyl)[NMeA][dL][Dab][Cha]VTC[Dab][Aun]-OH; thioether N-14)
21.1	CCC(C)[C@@H]1NC(=O)[C@H](Cc2ccc(-c3ccccc3)cc2)NC(=O)[C@H](CC(C)C)NC(=O)[C@H](Cc2c[nH]c3ccccc23)NC(=O)[C@H](CC(=O)O)NC(=O)[C@H](Cc2ccc(OCC(=O)O)cc2)NC(=O)[C@H](Cc2ccncc2)NC(=O)CSC[C@@H](C(=O)N[C@H](CC(N)=O)C(=O)NCCOCCOCC(=O)NCCCCCCCCCCC(=O)O)NC(=O)[C@H](CO)NC(=O)[C@H](C(C)C)NC(=O)[C@H](CC(C)C)NC(=O)[C@H](CCN)NC(=O)[C@@H](CC(C)C)NC(=O)[C@H](C)N(C)C1=O (stereo partly drawn) [Example 2064] ({CH2CO}-[4Pal]Y(Carboxymethyl)DWL[Bip][Ile(3ξ)][NMeA][dL][Dab]LVSC[dN][AEEA][Aun]-OH; thioether N-14)
12.9	Cc1cccc(C[C@@H]2NC(=O)[C@H](CC(=O)O)NC(=O)[C@H](Cc3ccc(OCC(=O)O)cc3)NC(=O)[C@H](C(C)O)NC(=O)CSC[C@@H](C(=O)N[C@@H](CCCN)C(=O)N[C@@H](CO)C(=O)NCCCCCCCCCCCC(=O)O)NC(=O)[C@H](C(C)O)NC(=O)[C@H](C(C)C)NC(=O)[C@H](CC3CCCCC3)NC(=O)[C@H](CCN)NC(=O)[C@@H](CC(C)C)NC(=O)[C@H](C)N(C)C(=O)[C@H](CCCNC(N)=O)NC(=O)[C@H](Cc3ccc(-c4ccccc4)cc3)NC(=O)[C@H](C(C)C)NC2=O)c1 (stereo partly drawn) [Example 2412] ({CH2CO}-[Thr(3ξ)]Y(Carboxymethyl)D[Phe(3-Me)]V[Bip][Cit][NMeA][dL][Dab][Cha]V[Thr(3ξ)]C[Orn]S[12Ado]-OH; thioether N-14)
20.5	CC(C)C[C@H]1NC(=O)[C@H](C)N(C)C(=O)[C@H](CCC(N)=O)NC(=O)[C@H](Cc2ccc(-c3ccccc3)cc2)NC(=O)[C@H](Cc2ccc(C(=O)O)cc2)NC(=O)[C@H](Cc2cccc(C(F)(F)F)c2)NC(=O)[C@H](CC(=O)O)NC(=O)[C@H](Cc2ccc(OCC(=O)O)cc2)NC(=O)[C@H](CN2CCOCC2)NC(=O)CSC[C@@H](C(=O)N[C@@H](CCN)C(=O)NCCCCCCCCCCCCC(=O)O)NC(=O)[C@H](Cc2c[nH]cn2)NC(=O)[C@H](C(C)(C)O)NC(=O)[C@H](CC2CCCCC2)NC(=O)[C@H](CCN)NC1=O [Example 1188] ({CH2CO}-[Ala(morpholin-4-yl)]Y(Carboxymethyl)D[Phe(3-CF3)][Phe(4-COOH)][Bip]Q[NMeA][dL][Dab][Cha][Val(3-OH)]HC[Dab]-{NH(CH2)12COOH}; thioether N-14)
21.7	CC(C)C[C@H]1NC(=O)[C@H](C)N(C)C(=O)[C@H](C(C)C)NC(=O)[C@H](Cc2ccc(-c3ccccc3)cc2)NC(=O)[C@H](C(C)C)NC(=O)[C@H](Cc2c[nH]c3ccccc23)NC(=O)[C@H](CC(=O)O)NC(=O)[C@H](Cc2ccc(OCC(=O)O)cc2)NC(=O)[C@H](Cc2ccncc2)NC(=O)CSC[C@@H](C(=O)N[C@@H](CCCCN)C(=O)NCCOCCOCC(=O)NCCCCCCCCCCC(=O)O)NC(=O)[C@H](CO)NC(=O)[C@H](C(C)C)NC(=O)[C@H](CC2CCCCC2)NC(=O)[C@H](CCN)NC1=O [Example 2100] ({CH2CO}-[4Pal]Y(Carboxymethyl)DWV[Bip]V[NMeA][dL][Dab][Cha]VSCK[AEEA][Aun]-OH; thioether N-14)
17.9	CCC(C)[C@@H]1NC(=O)[C@H](Cc2ccc(-c3ccccc3)cc2)NC(=O)[C@H](C(C)C)NC(=O)[C@H](Cc2c[nH]c3ccccc23)NC(=O)[C@H](CC(=O)O)NC(=O)[C@H](Cc2ccc(OCC(=O)O)cc2)NC(=O)[C@H](Cc2ccc(OCC(=O)O)cc2)NC(=O)CSC[C@@H](C(=O)N[C@H](CC(N)=O)C(=O)NCCCCCCCCCCC(=O)O)NC(=O)[C@H](CCCNC(=N)N)NC(=O)[C@H](C(C)C)NC(=O)[C@H](CC2CCCCC2)NC(=O)[C@H](CCN)NC(=O)[C@@H](CC(C)C)NC(=O)[C@H](C)N(C)C1=O (stereo partly drawn) [Example 2287] ({CH2CO}-Y(Carboxymethyl)Y(Carboxymethyl)DWV[Bip][Ile(3ξ)][NMeA][dL][Dab][Cha]VRC[dN][Aun]-OH; thioether N-14)

Same assay, conditions: PE-labeled PD-L1-Ig 20 nM final, Jurkat-hPD-1 cells; read-out: Jurkat HPD1 PDL1 IC50

IC50 [nM]	Structure (SMILES)
161	CC(=O)NCCCC[C@@H]1NC(=O)[C@H](C(C)(C)O)NC(=O)[C@H](CC2CCCCC2)NC(=O)[C@H](CCN)NC(=O)[C@@H](CC(C)C)NC(=O)[C@H](C)N(C)C(=O)[C@H](CCC(N)=O)NC(=O)[C@H](Cc2ccc(-c3ccccc3)cc2)NC(=O)[C@H](Cc2ccc(C(=O)O)cc2)NC(=O)[C@H](Cc2cccc(C(F)(F)F)c2)NC(=O)[C@H](CC(=O)O)NC(=O)[C@H](Cc2ccc(OCC(=O)O)cc2)NC(=O)[C@H](Cc2ccc(OCC(=O)O)cc2)NC(=O)CSC[C@@H](C(=O)N[C@H](CCN)C(=O)NCCOCCOCC(=O)N[C@@H](CO)C(=O)NCCOCCOCC(=O)N[C@@H](CCC(=O)NCCCCCCCCCCCCCCC(=O)O)C(=O)O)NC1=O [Example 2650] ({CH2CO}-Y(Carboxymethyl)Y(Carboxymethyl)D[Phe(3-CF3)][Phe(4-COOH)][Bip]Q[NMeA][dL][Dab][Cha][Val(3-OH)]K(Ac)C[dDab][AEEA]S[AEEA]E(NH(CH2)14COOH)-OH; thioether N-14)
9.3	CCC(C)[C@@H]1NC(=O)[C@H](Cc2ccc(-c3ccccc3)cc2)NC(=O)[C@H](Cc2ccc(C(N)=O)cc2)NC(=O)[C@H](Cc2cccc(C)c2)NC(=O)[C@H](CC(=O)O)NC(=O)[C@H](Cc2ccc(OCC(=O)O)cc2)NC(=O)[C@H](C(C)O)NC(=O)CSC[C@@H](C(=O)N[C@@H](CCN)C(=O)NCCOCCOCC(=O)NCCCCCCCCCCC(=O)O)NC(=O)[C@H](C(C)O)NC(=O)[C@H](C(C)(C)O)NC(=O)[C@H](CC2CCCCC2)NC(=O)[C@H](CCN)NC(=O)[C@@H](CC(C)C)NC(=O)[C@H](C)N(C)C1=O (stereo partly drawn) [Example 2471] ({CH2CO}-[Thr(3ξ)]Y(Carboxymethyl)D[Phe(3-Me)][Phe(4-CONH2)][Bip][Ile(3ξ)][NMeA][dL][Dab][Cha][Val(3-OH)][Thr(3ξ)]C[Dab][AEEA][Aun]-OH; thioether N-14)
